Test results published in ChEMBL document CHEMBL5149982, “Development of Potent NEDD8-Activating Enzyme Inhibitors Bearing a Pyrimidotriazole Scaffold” (J Med Chem, 2021).
Activity calls are given as the source filed them. No cut-off for these calls is given here.

Assays:
[1] = biological target: T1, NEDD8 activating enzyme (Homo sapiens) (UniProt Q8TBC4+Q13564); assay: Inhibition of NAE in human HCT-116 cells mediated neddylation assessed as accumulation of p27 incubated for 24 hrs by Western blotting analysis; type: cell-based; conditions: dose <= 1.0 µM, DDE = dose-dependent effect
[2] = AUClast in Sprague-Dawley rat at 1 mg/kg, iv; type: ADME, organism-based; parameters: time 0 - last, dose 1 mg/kg, route iv; conditions: in vivo
CAPAN-1 = assay: Antiproliferative activity against human CAPAN-1 cells assessed as cell growth inhibition measured after 72 hrs by SRB assay; type: functional, cell-based; conditions: CAPAN-1, 72 h
[3] = biological target: T1, NEDD8 activating enzyme (Homo sapiens); assay: Inhibition of NAE in human HCT-116 cells mediated neddylation assessed as accumulation of IkappaBalpha (Ser32/36) incubated for 24 hrs by Western blotting analysis; type: cell-based; conditions: dose <= 1.0 µM, DDE = dose-dependent effect
[4] = biological target: T1, NEDD8 activating enzyme (Homo sapiens); assay: Inhibition of NAE in human HuTu80 cells mediated neddylation assessed as increase in CHK phosphorylation incubated for 24 hrs by Western blotting analysis; type: cell-based
HCT-116 [5] = assay: Antiproliferative activity against human HCT-116 cells assessed as cell growth inhibition measured after 72 hrs by SRB assay; type: functional, cell-based; conditions: HCT-116, 72 h
MV4-11 = assay: Antiproliferative activity against human MV4-11 cells assessed as cell growth inhibition measured after 72 hrs by SRB assay; type: functional, cell-based; conditions: MV4-11, 72 h
[6] = Observed MRTinfinity in Sprague-Dawley rat at 1 mg/kg, iv; type: ADME, organism-based; conditions: in vivo
HCT-116 [7] = assay: Induction of cell cycle arrest in human HCT-116 cells assessed as accumulation of cells at S phase at higher concentration incubated for 24 hrs by PI-staining-based flow cytometry; type: functional
[8] = biological target: T1, NEDD8 activating enzyme (Homo sapiens); assay: Inhibition of NAE in human HuTu80 cells mediated neddylation assessed as accumulation of IkappaBalpha (Ser32/36) incubated for 24 hrs by Western blotting analysis; type: cell-based; conditions: dose <= 1.0 µM, DDE = dose-dependent effect
HCT-116 [9] = assay: Induction of cell cycle arrest in human HCT-116 cells assessed as accumulation of cells at G2/M phase incubated for 24 hrs by PI-staining-based flow cytometry; type: functional
THP-1 = assay: Antiproliferative activity against human THP-1 cells assessed as cell growth inhibition measured after 72 hrs by SRB assay; type: functional, cell-based; conditions: THP-1, 72 h
HCT-116 [10] = assay: Antitumor activity against human HCT-116 cells xenografted in nude mouse assessed as reduction in tumor growth at 130 mg/kg, sc qd for upto 18 days; type: functional; conditions: time <= 18 day
[11] = biological target: T1, NEDD8 activating enzyme (Homo sapiens); assay: Inhibition of NAE in human HCT-116 cells mediated neddylation assessed as accumulation of p21 incubated for 24 hrs by Western blotting analysis; type: cell-based; conditions: dose <= 1.0 µM, DDE = dose-dependent effect
HCT-116 [12] = assay: Induction of apoptosis in human HCT-116 cells assessed as increase in cleaved PARP1 level upto 1 uM incubated for 48 hrs by Western blot analysis; type: functional, cell-based
[13] = biological target: T1, NEDD8 activating enzyme (Homo sapiens); assay: Inhibition of NAE in human HuTu80 cells mediated neddylation assessed as accumulation of p21 incubated for 24 hrs by Western blotting analysis; type: cell-based; conditions: dose <= 1.0 µM, DDE = dose-dependent effect
HCT-116 [14] = assay: Induction of apoptosis in human HCT-116 cells assessed as increase in cleaved caspase-7 level upto 1 uM incubated for 48 hrs by Western blot analysis; type: functional, cell-based
[15] = Volume of distribution at steady state in Sprague-Dawley rat at 1 mg/kg, iv; type: ADME, organism-based; conditions: in vivo, read-out: Vdss
[16] = biological target: T1, NEDD8 activating enzyme (Homo sapiens); assay: Inhibition of NAE in human HuTu80 cells mediated neddylation assessed as accumulation of p27 incubated for 24 hrs by Western blotting analysis; type: cell-based; conditions: dose <= 1.0 µM, DDE = dose-dependent effect
DU-145 = assay: Antiproliferative activity against human DU-145 cells assessed as cell growth inhibition measured after 72 hrs by SRB assay; type: functional, cell-based; conditions: DU-145, 72 h
HuTu80 = assay: Antiproliferative activity against human HuTu80 cells assessed as cell growth inhibition measured after 72 hrs by SRB assay; type: functional, cell-based; conditions: HuTu80, 72 h
[17] = biological target: T1, NEDD8 activating enzyme (Homo sapiens); assay: Inhibition of NAE in human HuTu80 cells mediated neddylation assessed as accumulation of gamma-H2AX incubated for 24 hrs by Western blotting analysis; type: cell-based
HCT-116 [18] = assay: Induction of cell cycle arrest in human HCT-116 cells assessed as increase in > 4N cells at higher concentration incubated for 24 hrs by PI-staining-based flow cytometry; type: functional
[19] = biological target: Voltage-gated inwardly rectifying potassium channel KCNH2 (Homo sapiens, UniProt Q12809); assay: Inhibition of hERG channel; type: toxicity
Sequence of Voltage-gated inwardly rectifying potassium channel KCNH2 (Q12809 whole entry): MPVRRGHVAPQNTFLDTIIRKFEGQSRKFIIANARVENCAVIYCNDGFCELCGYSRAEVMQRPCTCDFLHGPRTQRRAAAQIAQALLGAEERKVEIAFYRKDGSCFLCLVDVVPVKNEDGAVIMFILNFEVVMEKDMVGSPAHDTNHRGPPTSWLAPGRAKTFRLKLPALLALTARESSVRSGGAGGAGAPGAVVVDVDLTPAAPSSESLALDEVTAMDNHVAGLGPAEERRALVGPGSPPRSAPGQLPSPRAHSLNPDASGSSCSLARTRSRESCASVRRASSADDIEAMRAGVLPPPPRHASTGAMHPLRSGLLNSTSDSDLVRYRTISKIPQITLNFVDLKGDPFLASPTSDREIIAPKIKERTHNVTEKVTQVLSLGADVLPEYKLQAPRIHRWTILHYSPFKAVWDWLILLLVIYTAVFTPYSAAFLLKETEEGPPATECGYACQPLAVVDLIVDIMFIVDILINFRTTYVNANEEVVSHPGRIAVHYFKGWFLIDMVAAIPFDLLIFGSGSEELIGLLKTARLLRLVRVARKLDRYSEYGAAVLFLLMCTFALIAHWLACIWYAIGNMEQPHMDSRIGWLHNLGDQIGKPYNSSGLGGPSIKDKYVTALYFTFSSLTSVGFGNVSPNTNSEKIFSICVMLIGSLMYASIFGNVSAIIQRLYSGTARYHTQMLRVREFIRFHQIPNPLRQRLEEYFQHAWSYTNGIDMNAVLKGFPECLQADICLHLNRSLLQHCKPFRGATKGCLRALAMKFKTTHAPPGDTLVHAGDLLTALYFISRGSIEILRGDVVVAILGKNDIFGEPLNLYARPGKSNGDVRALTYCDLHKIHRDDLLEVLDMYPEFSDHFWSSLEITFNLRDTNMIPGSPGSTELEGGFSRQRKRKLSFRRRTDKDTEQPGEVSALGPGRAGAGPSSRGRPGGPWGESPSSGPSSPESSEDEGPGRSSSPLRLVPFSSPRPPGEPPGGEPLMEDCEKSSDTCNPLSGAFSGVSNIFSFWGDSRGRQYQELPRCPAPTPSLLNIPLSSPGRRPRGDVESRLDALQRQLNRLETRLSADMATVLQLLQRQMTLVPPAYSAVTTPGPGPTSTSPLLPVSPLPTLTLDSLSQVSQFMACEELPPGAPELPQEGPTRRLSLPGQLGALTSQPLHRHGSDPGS

[20] = biological target: T1, NEDD8 activating enzyme (Homo sapiens); assay: Inhibition of NAE in human HCT-116 cells mediated neddylation assessed as accumulation of gamma-H2AX incubated for 24 hrs by Western blotting analysis; type: cell-based
[21] = biological target: T1, NEDD8 activating enzyme (Homo sapiens); assay: Inhibition of NAE in human HCT-116 cells mediated neddylation assessed as increase in CHK phosphorylation incubated for 24 hrs by Western blotting analysis; type: cell-based
HCT-116 [22] = assay: Antiproliferative activity against human HCT-116 cells assessed as cell growth inhibition by sulforhodamine B assay; type: functional, cell-based
[23] = Observed AUCinfinity in Sprague-Dawley rat at 1 mg/kg, iv; type: ADME, organism-based; parameters: time infinity, dose 1 mg/kg, route iv; conditions: in vivo
NEDD8 activating enzyme = biological target: T2, NEDD8 activating enzyme (Homo sapiens, UniProt Q8TBC4); assay: Inhibition of NAE (unknown origin) mediated neddylation assessed as decrease in NEDD8-Ubcl2 adduct formation incubated for 2 hrs in presence of L-glutathione and ATP by HTRF assay; type: protein-complex assay
T2 sequence (Q8TBC4 whole entry): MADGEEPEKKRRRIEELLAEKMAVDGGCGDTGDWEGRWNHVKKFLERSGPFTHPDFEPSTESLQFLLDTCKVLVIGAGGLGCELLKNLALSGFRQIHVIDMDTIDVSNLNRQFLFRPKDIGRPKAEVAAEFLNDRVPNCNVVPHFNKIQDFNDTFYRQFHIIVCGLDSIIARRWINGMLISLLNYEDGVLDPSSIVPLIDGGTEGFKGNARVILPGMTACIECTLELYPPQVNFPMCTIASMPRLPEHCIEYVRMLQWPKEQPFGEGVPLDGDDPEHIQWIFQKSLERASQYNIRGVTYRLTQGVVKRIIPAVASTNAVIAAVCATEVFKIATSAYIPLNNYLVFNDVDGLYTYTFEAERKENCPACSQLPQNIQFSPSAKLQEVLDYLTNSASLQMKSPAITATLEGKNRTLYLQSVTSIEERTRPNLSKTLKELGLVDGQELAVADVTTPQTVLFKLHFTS
T2 sequence (Q13564 whole entry): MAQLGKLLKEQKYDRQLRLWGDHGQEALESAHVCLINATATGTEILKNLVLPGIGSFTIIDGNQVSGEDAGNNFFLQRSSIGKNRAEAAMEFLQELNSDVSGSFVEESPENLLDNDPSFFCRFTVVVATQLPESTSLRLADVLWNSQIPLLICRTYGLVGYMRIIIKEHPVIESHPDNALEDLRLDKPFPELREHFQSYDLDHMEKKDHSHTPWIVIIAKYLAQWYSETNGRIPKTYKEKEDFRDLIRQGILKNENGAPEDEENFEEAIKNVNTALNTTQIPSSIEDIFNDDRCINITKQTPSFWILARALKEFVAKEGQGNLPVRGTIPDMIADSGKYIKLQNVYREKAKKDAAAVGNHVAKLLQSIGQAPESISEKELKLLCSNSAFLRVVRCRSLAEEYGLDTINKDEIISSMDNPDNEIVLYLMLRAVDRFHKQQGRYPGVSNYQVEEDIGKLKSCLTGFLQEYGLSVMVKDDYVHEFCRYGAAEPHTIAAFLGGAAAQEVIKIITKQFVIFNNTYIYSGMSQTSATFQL

LNCaP-Clone-FGC = assay: Antiproliferative activity against human LNCaP-Clone-FGC cells assessed as cell growth inhibition measured after 72 hrs by SRB assay; type: functional, cell-based
[24] = biological target: T1, NEDD8 activating enzyme (Homo sapiens); assay: Inhibition of NAE in human HuTu80 cells mediated neddylation assessed as accumulation of CDT1 incubated for 24 hrs by Western blotting analysis; type: cell-based; conditions: dose <= 1.0 µM, DDE = dose-dependent effect
[25] = Half life in Sprague-Dawley rat at 1 mg/kg, iv; type: ADME, organism-based; conditions: in vivo
[26] = Clearance in Sprague-Dawley rat at 1 mg/kg, iv; type: ADME, organism-based; conditions: in vivo
HT-29 = assay: Antiproliferative activity against human HT-29 cells assessed as cell growth inhibition measured after 72 hrs by SRB assay; type: functional, cell-based; conditions: HT-29, 72 h
RKO = assay: Antiproliferative activity against human RKO cells assessed as cell growth inhibition measured after 72 hrs by SRB assay; type: functional, cell-based
Jurkat = assay: Antiproliferative activity against human Jurkat cells assessed as cell growth inhibition measured after 72 hrs by SRB assay; type: functional, cell-based
[27] = Toxicity in nude mouse xenografted with human HCT-116 cells assessed as effect on body weight at 65 to 130 mg/kg, sc qd for upto 18 days; type: organism-based; conditions: in vivo, 432 h, dose 65-130 mg/kg, time < 18 day
[28] = Inhibition of UAE (unknown origin) […] assessed as decrease in UbcH10-Ub adduct formation incubated for 2 hrs in presence of L-glutathione and ATP by HTRF assay; parameters: species or system Homo sapiens
HCT-116 [29] = assay: Induction of apoptosis in human HCT-116 cells assessed as increase in cleaved caspase-3 level upto 1 uM incubated for 48 hrs by Western blot analysis; type: functional, cell-based
[30] = biological target: T1, NEDD8 activating enzyme (Homo sapiens); assay: Inhibition of NAE in human HCT-116 cells mediated neddylation assessed as accumulation of CDT1 incubated for 24 hrs by Western blotting analysis; type: cell-based; conditions: dose <= 1.0 µM, DDE = dose-dependent effect

SMILES: COC(=O)N1CCC2(CC1)C[C@H](Nc1ncnc3c1nnn3[C@@H]1C[C@@H](COS(N)(=O)=O)[C@@H](O)C1)c1ccccc12
- inhibition [1]: Dde
- AUC(0-t) [2]: 0.56 µg·h/mL
- IC50 (CAPAN-1): 0.101 µM
- inhibition [3]: Dde
- inhibition [4]: Active
- IC50 (HCT-116 [5]): 0.0339 µM
- IC50 (MV4-11): 0.106 µM
- MRT inf [6]: 60 min
- Activity (HCT-116 [7]): Active
- inhibition [8]: Dde
- Activity (HCT-116 [9]): Active
- IC50 (THP-1): 0.353 µM
- T/C (HCT-116 [10]): 0.19
- inhibition [11]: Dde
- Activity (HCT-116 [12]): Active
- inhibition [13]: Dde
- Activity (HCT-116 [14]): Active
- Vd [15]: 1.78 L/kg
- inhibition [16]: Dde
- IC50 (DU-145): 0.482 µM
- IC50 (HuTu80): 0.04 µM
- inhibition [17]: Active
- Activity (HCT-116 [18]): Active
- IC50 [19]: > 40 µM
- inhibition [20]: Active
- inhibition [21]: Active
- IC50 (HCT-116 [22]): 0.0362 µM
- AUC(0-inf) [23]: 0.563 µg·h/mL
- IC50 (NEDD8 activating enzyme): 0.00055 µM
- IC50 (LNCaP-Clone-FGC): 0.264 µM
- inhibition [24]: Dde
- half-life [25]: 42.6 min
- clearance [26]: 1.78 L/h/kg
- IC50 (HT-29): 0.407 µM
- IC50 (RKO): 0.286 µM
- IC50 (Jurkat): 0.482 µM
- Activity [27]: Non-Toxic
- IC50 [28]: 0.0668 µM
- Activity (HCT-116 [29]): Active
- inhibition [30]: Dde
